In patent US20190100725A1, “CELL CULTURE MEDIUM AND CULTURE MEDIUM SUPPLEMENT” (Institute of Biophysics, Chinese Academy of Sciences, priority 2016, published 2019):

Key:
Format in all cases: cell-based, human
hiPSC lines = experiment: Cardiac differentiation of hiPSC lines in S12 medium, FACS of CTNT-positive cells; conditions: for percentage of CTNT-positive cells after glucose deprivation enrichment: 2 days of glucose deprivation (glucose replaced with DL-lactate); for percentage of CTNT-positive cells before glucose deprivation enrichment: hiPSC line XVF 4 in S12 medium, 1 μM, days 5-8
Experimental: (§1) For small molecule-induced cardiac differentiation, hESC line H7 or hiPSCs were digested with Versene solution into single cells and seeded on VTN-NC-coated, 24-well plates at a density of 2.5-3.0×10^5 cells/well. Y27632 (10 μM) was supplemented on the first day and withdrawn thereafter. Cultures were maintained in E8 medium for 2-3 days until they reached 90% confluence. To initiate cell differentiation (designated as day 0), the medium was changed to S12 medium without insulin. Cells were treated with 4-8 μM CHIR99021 (Tocris, 4423) for 1 day. Then, the medium was replaced with fresh medium without CHIR99021. At day 3, 5 μM IWR-1 (Sigma-Aldrich, 10161) was supplied with fresh medium for 2 days. From day 5, insulin-containing S12 medium was used. Thereafter, the medium was changed every other day (FIG. 1a).
(§2) For directed differentiation of atrial or ventricular myocytes, 1 μM RA (Sigma-Aldrich, R2625) or 1 μM BMS493 (Tocris, 3509) was added to the differentiating cultures during days 5-8 of differentiation as described previously^9.
(§3) Cardiomyocytes were digested into single cells with 0.25% trypsin-EDTA (Life Technology, 25200-072) at 37° C. for about 5 min, and washed with buffer B, which contains 0.5% bovine serum albumin (Sigma, A9418-50G) in phosphate-buffered saline (PBS). Then the cells were fixed with 4% paraformaldehyde at room temperature and washed with buffer A, which contains 0.5% bovine serum albumin and 0.1% saponin (Sigma-Aldrich, S7900) in PBS. The cells were then incubated with an anti-human CTNT primary antibody (R&D systems, MAB1874) for 40 min at 4° C. and washed with buffer A, followed by incubation with a goat anti-mouse FITC-conjugated secondary antibody (ZSGB-BIO, ZF-0312) for 40 min at 4° C. Data were collected on FACScalibur (Becton Dickinson) and analyzed with FlowJo software (Treestar).

hiPSC line XVF 4 [1] = experiment: QPCR of IRX4 and NR2F2 in RA- or BMS493-treated hiPSC cultures; conditions: 14-day-old cultures; BMS493-treated versus RA-treated
Experimental: as §2
Total RNA was isolated using RNeasy Plus Mini kit (Qiagen, 74134). One microgram of total RNA was reverse transcribed using the PrimeScript™ RT reagent kit with gDNA eraser (Takara, RR047A). RT-PCR was performed with 2×Taq Mix (CW-BIO, CW0682C) according to the manufacturer's instructions. PCR products were analyzed using 1.5% agarose gel electrophoresis. QPCR was performed in triplicate using the 2×QuantiFast SYBR Green I PCR Master Mix (Qiagen, 204057) on a Rotor Gene 6200 Real-Time PCR Machine (Corbett) with an annealing temperature of 60° C. The expression of each gene was normalized to GAPDH gene expression. The primer sequences are listed in Table 4 (primer sequences for RT-PCR) and Table 5 (primer sequences for QPCR).

hiPSC line XVF 4 [2] = experiment: Double immunofluorescence staining of MLC2V and CTNT in 60-day-old cultures
Experimental: Differentiated cultures were digested with 0.25% trypsin-EDTA, and the cells were plated on 0.1% gelatin-coated coverslips for 5 days to allow full attachment. The coverslips were washed with PBS and fixed in 4% paraformaldehyde for 20 min at 4° C. The fixed cells were then permeabilized with 0.1% Triton X-100 for 20 min at 4° C., and blocked with 10% goat serum (ZSGB-BIO, ZLI-9021) for 1 h at room temperature. Then, the cells were incubated overnight at 4° C. with the following primary antibodies: anti-human CTNT (R&D systems, MAB1874), mouse anti-human α-actinin (Sigma-Aldrich, A7811), mouse anti-human MHC (Abcam, ab15), goat anti-human α-SMA (Abcam, ab5694), mouse anti-human MLC2A (Synaptic Systems, 311011) and rabbit anti-human MLC2V (ProteinTech, 10906-1-AP). Goat anti-mouse 488- (ZSGB-BIO, ZF-0512) or 594-conjugated secondary antibody (ZSGB-BIO, ZF-0513), and goat anti-rabbit 488- (ZSGB-BIO, ZF-0511) or 594-conjugated secondary antibody (ZSGB-BIO, ZF-0516) were used as secondary antibodies. Nuclei were counterstained with 4′,6-diamidino-2-phenylindole (DAPI) (Sigma-Aldrich, D0542). Immunofluorescence images were visualized and recorded using an Olympus microscope system X51 or Olympus LSCM FV1000 (Olympus).

[3] = tested on: hiPSC-derived cardiomyocytes; experiment: Whole-cell patch clamp classification of AP types in RA- and BMS493-treated cultures
Experimental: The dissociation method used has been described previously^9. Briefly, 25-30-day-old differentiated cardiomyocyte clusters were washed with a low Ca^2+ solution, and then incubated in 1 mg/mL collagenase II (Life Technology, 17101-015) dissolved in a low Ca^2+ solution for 30-40 min at 37° C. The isolated cells were suspended in S12 medium containing 10% FBS, transferred to 0.1% gelatin-coated glass coverslips, and then maintained in a 5% CO2 incubator at 37° C.
Action potential (AP) and ion channel activities, which are critical for normal functions of cardiomyocytes, were investigated using whole-cell patch clamp technology on single cardiomyocytes. The classification of nodal-, atrial- and ventricular-like APs was based on the AP properties. Particularly, nodal-like AP has a slower maximal upstroke velocity (dV/dt), smaller action potential amplitude (APA), depolarized maximum diastolic potential (MDP), and faster beating rate than those of atrial- and ventricular-like APs. An AP duration at 90%0, of repolarization (APD90) value of 150 ms was used to classify atrial- and ventricular-like APs, because of the significant plateau phase of ventricular AP^21, 22. […] The parameters of the three AP types recorded were also analyzed (FIG. 3c).

[4] = tested on: hPSC-derived ventricular-like cardiomyocytes; experiment: Perforated whole-cell patch clamp, evoked AP of ventricular-like cardiomyocytes paced at 1 Hz; conditions: for APA / APD50 / APD90 / MDP / dV/dT: evoked AP, 1 Hz, percentage of untreated cardiomyocytes, mean±SEM
Experimental: Perforated whole-cell recording was used for pharmacological tests.
Nifedipine (Sigma-Aldrich, N7634) was prepared in DMSO. […] Other chemicals were from Sigma-Aldrich.

hESC line H7 = experiment: Cardiac differentiation of hESC line H7, FACS of CTNT-positive cells and cardiomyocyte yield; conditions: for cardiac differentiation efficacy (in words): individual addition of the antioxidant to S12 basal medium
Experimental: as §1, §3

| Structure (SMILES) | APA ([4]; 1 nM) [%] | APD50 ([4]; 1 nM) [%] | APD90 ([4]; 1 nM) [%] | MDP ([4]; 1 nM) [%] | dV/dT ([4]; 1 nM) [%] | APA ([4]; 10 nM) [%] | APD50 ([4]; 10 nM) [%] | APD90 ([4]; 10 nM) [%] | MDP ([4]; 10 nM) [%] | dV/dT ([4]; 10 nM) [%] | APA ([4]; 100 nM) [%] | APD50 ([4]; 100 nM) [%] | APD90 ([4]; 100 nM) [%] | MDP ([4]; 100 nM) [%] | dV/dT ([4]; 100 nM) [%] | APA ([4]; 1000 nM) [%] | APD50 ([4]; 1000 nM) [%] | APD90 ([4]; 1000 nM) [%] | MDP ([4]; 1000 nM) [%] | cardiac differentiation efficacy (in words) (hESC line H7) | also measured |
| --- | --- | --- | --- | --- | --- | --- | --- | --- | --- | --- | --- | --- | --- | --- | --- | --- | --- | --- | --- | --- | --- |
| CC1(C)CC=C(C#Cc2ccccc2)c2cc(/C=C/c3ccc(C(=O)O)cc3)ccc21 [BMS493] | – | – | – | – | – | – | – | – | – | – | – | – | – | – | – | – | – | – | – | – | percentage of CTNT-positive cells after glucose deprivation enrichment (hiPSC lines): 94.3%; percentage of CTNT-positive cells before glucose deprivation enrichment (hiPSC lines): 86.3%; expression level of ventricular-specific gene IRX4 (hiPSC line XVF 4 [1]): significantly higher; MLC2V expression in cardiomyocytes (hiPSC line XVF 4 [2]): widely expressed; percentage of recorded APs that were ventricular-like [3]: 93.3% |
| Cc1cccc(CCN2CCC(C(=O)c3ccc(NS(C)(=O)=O)cc3)CC2)n1 [E-4031] | 102.9 ± 1.1 | 103.8 ± 3.8 | 102.1 ± 3.1 | 101.9 ± 1.2 | 101.2 ± 8.0 | 103.8 ± 1.5 | 110.1 ± 5.4 | 112.1 ± 5.0 | 101.5 ± 1.7 | 112.4 ± 5.5 | 103.0 ± 2.3 | 144.0 ± 6.7 | 169.6±13.4 | 99.6 ± 2.9 | 111.4 ± 9.6 | 95.6 ± 4.0 | 151.1 ± 7.5 | 195.6±12.3 | 92.4 ± 2.8 | – | effects on the AP ([4]; 10 nM, 1 Hz stimulation): minor effects; dV/dT ([4]; 1000 nM): 95.6 ± 7.4%; AP duration ([4]; 1 Hz stimulation (0.1-0.3 nA), dose dependence): prolonged the AP duration in a dose-dependent manner; change in APA and dV/dt ([4]; 1 Hz stimulation, up to 1000 nM): no significant change |
| CC(C)NCC(O)c1ccc(O)c(O)c1 (stereo not drawn) [Isoproterenol] | 99.9 ± 1.7 | 99.1 ± 0.7 | 97.3 ± 1.7 | 101.2 ± 1.5 | 99.9 ± 3.0 | 101.7 ± 1.6 | 93.0 ± 1.6 | 92.0 ± 2.5 | 102.8 ± 2.3 | 108.1 ± 1.8 | 102.1 ± 2.5 | 90.7 ± 1.8 | 90.8 ± 1.8 | 104.8 ± 3.7 | 105.6 ± 2.5 | 99.0 ± 5.2 | 87.0 ± 1.6 | 87.3 ± 1.6 | 101.8 ± 5.0 | – | dV/dT ([4]; 1000 nM): 105.3 ± 3.1%; APD90 (in words) ([4]; 1 Hz stimulation): minor reduction; effects on the parameters of AP ([4]; 1 Hz stimulation, except APD90): no significant effects |
| O=C1O[C@H]([C@@H](O)CO)C(O)=C1O [L-ascorbic acid] | – | – | – | – | – | – | – | – | – | – | – | – | – | – | – | – | – | – | – | marginally improved | – |
| CC(=O)N[C@@H](CS)C(=O)O [N-acetyl-L-cysteine] | – | – | – | – | – | – | – | – | – | – | – | – | – | – | – | – | – | – | – | marginally improved | – |
| COC(=O)C1=C(C)NC(C)=C(C(=O)OC)C1c1ccccc1[N+](=O)[O-] [Nifedipine] | 96.7 ± 2.7 | 92.7 ± 2.1 | 94.6 ± 2.0 | 99.7 ± 2.7 | 90.6 ± 4.1 | 96.2 ± 0.7 | 70.1 ± 2.9 | 73.6±2.7 | 103.5 ± 1.1 | 96.4 ± 5.9 | 88.3 ± 2.4 | 55.3 ± 4.3 | 60.8±4.3 | 100.8 ± 2.9 | 86.1 ± 8.8 | 73.8 ± 4.4 | 36.0 ± 3.3 | 47.1±6.1 | 100.8 ± 3.1 | – | dV/dT ([4]; 1000 nM): 60.0 ± 11.3 % |
| CC1=C(/C=C/C(C)=C/C=C/C(C)=C/C(=O)O)C(C)(C)CCC1 [RA, retinoic acid] | – | – | – | – | – | – | – | – | – | – | – | – | – | – | – | – | – | – | – | – | percentage of CTNT-positive cells after glucose deprivation enrichment (hiPSC lines): 95.7%; percentage of CTNT-positive cells before glucose deprivation enrichment (hiPSC lines): 85%; percentage of recorded APs that were atrial-like ([3]; 30-day-old cardiomyocytes, n=31): 90.3% |
| CC(=O)C(=O)[O-].[Na+] [sodium pyruvate] | – | – | – | – | – | – | – | – | – | – | – | – | – | – | – | – | – | – | – | marginally improved | – |
| Cc1c(C)c2c(c(C)c1O)CCC(C)(C(=O)O)O2 (stereo not drawn) [trolox] | – | – | – | – | – | – | – | – | – | – | – | – | – | – | – | – | – | – | – | marginally improved | cardiac differentiation (FACS for CTNT positive cells) (hESC line H7; added to B27-based medium with six compounds removed, VTN-NC first three days): efficiently supported cardiac differentiation |
